Source: patent publication US20050004179A1, “Methods and materials for treating, detecting, and reducing the risk of developing Alzheimer's Disease” (priority 2003, published 2005)

Assays:
Tg2576 mice [1] = assay: Insulin response: insulin-induced decline in blood glucose levels; assay type: in vivo, mouse
From the text: (§1) Male Tg2576 mice and non-transgenic littermates were purchased from Taconic Farms (Germantown, N.Y.). The Tg2576 mice overexpress the 695-isoform of the human amyloid precursor protein containing a double mutation originally identified in a large Swedish kindred (familial AD); spatial learning and memory deficits are evident at 9-11 months of age, prior to the formation of mature amyloid plaques (Kawarabayashi et al., “Age-Dependent Changes in Brain, CSF, and Plasma Amyloid β Protein in the Tg2576 Transgenic Mouse Model of Alzheimer's Disease,” J. Neurosci., 21:372-381 (2001) and Westerman et al., “The Relationship Between Aβ and Memory in the Tg2576 Mouse Model of Alzheimer's Disease.,” J. Neurosci., 22:1858-1867 (2002), which are hereby incorporated by reference). Mice were individually housed in ventilated microisolator cages.
Insulin was administered and glucose was measured using the following procedures. A stock of human insulin (recombinant, 28.7 U.S.P. units/mg; Sigma) was prepared by dissolving 1 mg of powder in 1 ml of dH20 containing 1% glacial acetic acid. A 1:150 dilution in dH20 was used as the injection stock. Mice were administered the insulin solution by intraperitoneal injection. […]
Insulin was administered to non-fasted Tg2576 and wild-type mice at 0.75 U/kg, and blood glucose levels were monitored. […]

Tg2576 mice [2] = assay: Stress response: serum corticosterone after overnight fasting; assay type: in vivo, mouse; details: FIG. 5
From the text: as §1
Corticosterone and insulin were measured using the following procedures. For serum preparation, tail bleedings were carried out under a heating lamp, and the blood was collected into MICROTAINER™ Brand Tubes (Becton Dickinson, Franklin Lanes, N.J.). After allowing the blood to clot for 30-40 min, samples were centrifuged for 90 sec at 6000 g and stored at −80° C. until use. Serum corticosterone levels were measured using an enzyme immunoassay kit (Assay Designs, Inc., Ann Arbor, Mich.) with a 1 μl aliquot of each sample diluted 1:100 with assay buffer. The sensitivity of the assay was 26.99 pg/ml. Serum insulin levels were determined using the Ultra Sensitive Rat Insulin ELISA kit (Crystal Chem, Inc., Downers Grove, Ill.) using 5 μl of undiluted sample and mouse insulin standard. The sensitivity of the assay under these conditions was 100 pg/ml. All samples were measured in duplicate for both assays. Plates were read using the Bio-Tek ELx800UV Universal Microplate Reader.
The following supplemented diet was used. Tablets of rosiglitazone maleate (Avandia™, GlaxoSmithKline) were provided by the Creighton University Diabetes Center. […]

[3] = Body weights and food consumption on rosiglitazone-supplemented diet (tolerability); assay type: in vivo, mouse
From the text: as §1
The following supplemented diet was used. Tablets of rosiglitazone maleate (Avandia™, GlaxoSmithKline) were provided by the Creighton University Diabetes Center. The tablets were pulverized and mixed with the AIN-93G purified rodent diet at a final dose of 30 mg/kg of food (Dyets, Inc.). This dose was chosen based on the results of studies in rats using a diet supplemented with rosiglitazone (Diep et al., “Structure, Endothelial Function, Cell Growth, and Inflammation in Blood Vessels of Angiotensin II-Infused Rats: Role of Peroxisome Proliferator-Activated Receptor-γ,” Circulation, 105:2296-2302 (2002), which is hereby incorporated by reference. Unmodified AIN-93G pellets were purchased as the control diet (Dyets, Inc.). The mice were placed on the diets at 9 months of age.
To provide evidence for a relationship between insulin resistance and aberrant stress responses of Tg2576 mice, the animals were subjected to a diet containing the thiazolidinedione, rosiglitazone, in order to increase insulin sensitivity. The thiazolidinediones act as agonists of peroxisome proliferator-activated receptor-γ (“PPARγ”), which is a ligand-inducible transcription factor that regulates glucose and lipid metabolism (Desvergne et al., “Peroxisome Proliferator-Activated Receptors: Nuclear Control of Metabolism,” Endocr. Rev., 20:649-688 (1999), which is hereby incorporated by reference). The agonists of PPARγ attenuate insulin resistance by improving peripheral insulin sensitivity, and such agonists are currently being used clinically in the management of type 2 diabetes (Wagstaff et al., “Rosiglitazone: A Review of its Use in the Management of Type 2 Diabetes Mellitus,” Drugs 62:1805-1837 (2002), which is hereby incorporated by reference). […] More particularly, the following Table 1 summarizes body weights and food consumption for wild-type mice on the regular diet (Wt; n=7), Tg2576 mice on the diet supplemented with rosiglitazone maleate (Tr, AV; n=7), and for Tg2576 mice on the regular diet (Tr, C; n=5). Data are reported as means and standard deviations for the indicated weeks.

Tg2576 mice [4] = assay type: in vivo
From the text: as §1
The following supplemented diet was used. Tablets of rosiglitazone maleate (Avandia™, GlaxoSmithKline) were provided by the Creighton University Diabetes Center. The tablets were pulverized and mixed with the AIN-93G purified rodent diet at a final dose of 30 mg/kg of food (Dyets, Inc.). […]

Tg2576 mice [5] = assay: Spatial learning and memory, 8-arm radial maze; details: 15 weeks on drug-supplemented diet, approximately 4 mg/kg/day, FIG. 6
[6] = 10-month-old Tg2576 mice, supplemented diet 4 weeks

CN(CCOc1ccc(CC2SC(=O)NC2=O)cc1)c1ccccn1.O=C(O)/C=C\C(=O)O (centres unmarked) [rosiglitazone, rosiglitazone maleate]
Insulin response of Tg2576 mice on unsupplemented diet versus Tg2576 mice on supplemented diet (Tg2576 mice [1]; 10-month-old Tg2576 mice, 4 weeks on diet, insulin 0.75 U/kg): much weaker insulin response
Effect on insulin response (figure legend) (Tg2576 mice [1]; FIGS. 4A and 4B, Tg2576 mice, supplemented diet for 4 weeks): normalizes the insulin response
Serum corticosterone levels after overnight fasting versus wild-type mice (Tg2576 mice [2]; [6]): not significantly different
Serum corticosterone levels following overnight fasting versus Tg2576 mice on regular diet (Tg2576 mice [2]; [6]): well below the levels reached in Tg2576 mice on the regular diet
Effect on stress response (figure legend) (Tg2576 mice [2]; Tg2576 mice): normalizes the stress response
Tolerability of the diet containing rosiglitazone ([3]; mice, diet 30 mg/kg of food): well tolerated
Amount of rosiglitazone-supplemented food consumed over time ([3]; mouse, in vivo): decreased over time
Weight of mice, Week 1 ([3]; mouse, in vivo): 26.3 ± 3.2 g
Weight of mice, Week 4 ([3]; mouse, in vivo): 26.2 ± 3.1 g
Weight of mice, Week 7 ([3]; mouse, in vivo): 27.1 ± 3.3 g
Deaths in the course of the study (Tg2576 mice [4]; 7 Tg2576 mice on rosiglitazone-supplemented diet (2 of 7 on unsupplemented diet died)): None
Observed behaviour on handling (Tg2576 mice [4]; Tg2576 mice on rosiglitazone-supplemented diet): calmer and easier to handle
Number of reference memory errors versus control Tg2576 mice (Tr,C) (Tg2576 mice [5]): fewer than the number of reference memory errors made by Tg2576 not given the drug
Number of reference memory errors versus wild-type mice (Tg2576 mice [5]): as many reference memory errors as the wild-type mice
